The source of these data is patent US9765092B2, “Tricyclic piperidine compounds” (ACTELION PHARMACEUTICALS LTD, priority 2013, dated 2017).

The target of the assay is human TPH1 (Homo sapiens (Human), UniProt P17752). The assay is described as follows: Biochemical in vitro assay using fluorescence readout (TPH1 inhibition). The text has this: Biochemical In Vitro Assay Using Fluorescence Readout
To generate the enzyme, full length human TPH1 is cloned into the plasmid pET20b(+) (Novagen) and expressed in E. coli. The bacterial cells are ruptured by sonication on ice and the lysate is cleared by centrifugation. The resulting protein in the pellet is re-extracted and TPH1 is purified from the obtained lysate by affinity chromatography using a pterin cosubstrate analog immobilized to the resin of the column. The protein is further purified by size exclusion chromatography to remove protein aggregates. The activity of TPH1 is determined by using a fluorescence assay. The enzyme activity assay is carried out at 15° C. with atmosphere oxygen for the duration of 60 minutes in a volume of 64 μl. The reaction is carried out in a 0.1 M Tris-HCl buffer, adjusted to pH 7.6, containing 1 mM DTT, 0.2 mg/mL catalase, 100 μM (±)-6-methyl-5,6,7,8-tetrahydropterine dihydrochloride, 40 μM L-tryptophan, and 40-80 nM of TPH1. The reaction is started by bringing together L-tryptophan with all the other reaction substituents and stopped by quenching with perchloric acid (HClO4). The amount of 5-hydroxy-L-tryptophan produced during the enzymatic reaction is determined by fluorescence readout. Fluorescence, as determined at 540 nm when excited at 300 nm wavelength, increases proportionally to the 5-hydroxy-L-tryptophan formed. Compounds are prepared as 10 mM stock solution in DMSO, then diluted in 384-well plates using DMSO followed by a transfer of the dilutions into the assay plate. Fluorescence is measured for each well and the fluorescence at 540 nm wavelength is compared to the fluorescence of the vehicle in place of compound. Inhibitory activities of example compounds with respect to the TPH1 protein are determined by calculating the IC50 value (the concentration of compound needed to inhibit 50% of the enzyme activity). The calculated IC50 values may fluctuate depending on the daily biochemical assay performance. Fluctuations of this kind are known to those skilled in the art.

Where [1] appears, read: full length human TPH1, 40 μM L-tryptophan, 15° C., 60 minutes, fluorescence at 540 nm, mean if determined several times.
The mark [2] stands for this setting: human TPH1, fluorescence readout.

SMILES strings stand for the structures.

human TPH1, sequence (P17752 whole entry): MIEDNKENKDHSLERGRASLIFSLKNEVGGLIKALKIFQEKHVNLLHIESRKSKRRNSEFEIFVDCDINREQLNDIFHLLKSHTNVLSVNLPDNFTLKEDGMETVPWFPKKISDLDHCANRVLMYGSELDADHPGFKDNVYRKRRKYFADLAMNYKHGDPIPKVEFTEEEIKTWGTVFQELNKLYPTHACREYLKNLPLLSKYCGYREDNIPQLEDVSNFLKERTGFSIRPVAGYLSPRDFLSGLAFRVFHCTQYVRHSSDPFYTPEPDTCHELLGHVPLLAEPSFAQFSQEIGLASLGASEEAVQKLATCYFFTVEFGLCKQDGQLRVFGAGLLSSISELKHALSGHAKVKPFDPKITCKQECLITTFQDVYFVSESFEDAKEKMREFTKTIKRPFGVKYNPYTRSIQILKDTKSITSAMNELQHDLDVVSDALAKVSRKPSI

For `Cc1nn2c3c(nc2s1)CCN(C(=O)COc1ccc(NS(C)(=O)=O)nc1Cl)C3c1cnc(N(C)C)s1` (stereo not shown) [Example 1.22.6, N-(6-Chloro-5-(2-(5-(2-(dimethylamino)thiazol-5-yl)-2-methyl-7,8-dihydro-[1,3,4]thia-diazolo[2′,3′:2,3]imidazo[4,5-c]pyridin-6(5H)-yl)-2-oxoethoxy)pyridin-2-yl)methane-sulfonamide], the IC50 – broadly, the midpoint of a concentration-inhibition curve – under setting [1] is 39 nM.

Consider `CCc1nc(N2CCCS2(=O)=O)ccc1OCC(=O)N1CCc2nc3sc(C(F)(F)F)nn3c2[C@@H]1c1ccc(Cl)cc1F` [Example 5.1.4], for which the IC50 under setting [2] came to 7 nM.

Take `Cc1nn2c3c(nc2s1)CCN(C(=O)COc1ccc(C2CC2)nc1Cl)C3c1ccc(Cl)cc1F` (stereo not shown) [Example 1.4.28, 1-(5-(4-Chloro-2-fluorophenyl)-2-methyl-7,8-dihydro-[1,3,4]thiadiazolo[2′,3′:2,3]imidazo[4,5-c]pyridin-6(5H)-yl)-2-((2-chloro-6-cyclopropylpyridin-3-yl)oxy)-ethanone]: under setting [1], it took 6 nM to reach half-maximal inhibition (IC50).

For `Cc1nn2c3c(nc2s1)CCN(C(=O)COc1ccc(C(N)=O)nc1Cl)C3c1ccc(Cl)cc1F` (stereo not shown) [Example 1.4.19, 6-chloro-5-(2-(5-(4-chloro-2-fluorophenyl)-2-methyl-7,8-dihydro-[1,3,4]thiadiazolo[2′,3′:2,3]imidazo[4,5-c]pyridin-6(5H)-yl)-2-oxoethoxy)picolinamide], it took 5 nM to reach half-maximal inhibition under setting [2] (IC50).

The compound `COc1ccc(C2c3c(nc4sccn34)CCN2C(=O)COc2ccc3ccccc3c2)cc1OC` (stereo not shown) [Example 6.1.1, 1-(5-(3,4-dimethoxyphenyl)-7,8-dihydrothiazolo-[2′,3′:2,3]imidazo[4,5-c]pyridin-6(5H)-yl)-2-(naphthalen-2-yloxy)ethanone] gave a half-inhibitory concentration (IC50) under setting [2] of 4 nM.

Compound `O=C(COc1ccc(CN2CCOCC2)nc1Cl)N1CCc2nc3sccn3c2C1c1nc2ccccc2s1` (stereo not shown) [Example 6.12.8, 1-(5-(benzo[d]thiazol-2-yl)-7,8-dihydrothiazolo-[2′,3′:2,3]imidazo[4,5-c]pyridin-6(5H)-yl)-2-((2-chloro-6-(morpholinomethyl)pyridin-3-yl)oxy)ethanone] yielded an IC50 under setting [2] of 43 nM.

With `CCn1nc(C(=O)OC)cc1OCC(=O)N1CCc2nc3sc(C)nn3c2C1c1ccc(Cl)cc1F` (stereo not shown) [Example 1.4.31, Methyl 5-(2-(5-(4-chloro-2-fluorophenyl)-2-methyl-7,8-dihydro-[1,3,4]thiadiazolo[2′,3′:2,3]imidazo[4,5-c]pyridin-6(5H)-yl)-2-oxoethoxy)-1-ethyl-1H-pyrazole-3-carboxylate], the IC50 under setting [2] is 40 nM.

Under setting [2], `Cc1nn2c3c(nc2s1)CCN(C(=O)COc1ccc(N2CCOCC2)cc1Cl)C3c1c(C)noc1C` (stereo not shown) [Example 1.5.1, 2-(2-chloro-4-morpholinophenoxy)-1-(5-(3,5-dimethylisoxazol-4-yl)-2-methyl-7,8-dihydro[1,3,4]thiadiazolo[2′,3′:2,3]imidazo[4,5-c]pyridin-6(5H)-yl)ethanone] registered an IC50 of 22 nM.

`Cc1nn2c3c(nc2s1)CCN(C(=O)COc1ccc(N2CCOCC2)nc1Cl)C3c1nc(-c2ccccc2)no1` (stereo not shown) [Example 1.11.3, 2-((2-chloro-6-morpholinopyridin-3-yl)oxy)-1-(2-methyl-5-(3-phenyl-1,2,4-oxadiazol-5-yl)-7,8-dihydro-[1,3,4]thiadiazolo [2′,3′:2,3]imidazo[4,5-c]pyridin-6(5H)-yl)ethanone] yielded a half-inhibitory concentration (IC50) under setting [2] of 4 nM.

Under setting [2], `COC(C)(C)c1ccc(C2c3c(nc4sc(C)nn34)CCN2C(=O)COc2ccc(NS(C)(=O)=O)nc2Cl)c(F)c1` (stereo not shown) [Example 1.81.2, N-(6-chloro-5-(2-(5-(2-fluoro-4-(2-methoxypropan-2-yl)phenyl)-2-methyl-7,8-dihydro-[1,3,4]thiadiazolo[2′,3′:2,3]imidazo[4,5-c]pyridin-6(5H)-yl)-2-oxoethoxy)pyridin-2-yl)methanesulfonamide] had an IC50 of 132 nM.

`O=C(COc1ccc(NS(=O)(=O)C2CC2)nc1Cl)N1CCc2nc3sccn3c2C1c1sccc1F` (stereo not shown) [Example 6.8.1, N-(6-chloro-5-(2-(5-(3-fluorothiophen-2-yl)-7,8-dihydro-thiazolo[2′,3′:2,3]imidazo[4,5-c]pyridin-6(5H)-yl)-2-oxoethoxy)pyridin-2-yl)cyclopropanesulfonamide]: under setting [2], the IC50 turned out to be 15 nM.

Take `Cc1nn2c3c(nc2s1)CCN(C(=O)COc1ccc(N2CCOCC2)nc1Cl)C3c1csc(CO)c1` (stereo not shown) [Example 1.45.1, 2-((2-Chloro-6-morpholinopyridin-3-yl)oxy)-1-(5-(5-(hydroxymethyl)-thiophen-3-yl)-2-methyl-7,8-dihydro-[1,3,4]thiadiazolo[2′,3′:2,3]imidazo[4,5-c]pyridin-6(5H)-yl)ethanone]: under setting [1], the IC50 amounted to 33 nM.

In turn, `CCc1nc(N2CCCS2(=O)=O)ccc1OCC(=O)N1CCc2nc3sc(CF)nn3c2C1c1ccc(Cl)cc1F` (stereo not shown) [Example 7.1.3, 1-(5-(4-chloro-2-fluorophenyl)-2-(fluoromethyl)-7,8-dihydro-[1,3,4]thiadiazolo[2′,3′:2,3]imidazo[4,5-c]pyridin-6(5H)-yl)-2-((6-(1,1-dioxidoisothiazolidin-2-yl)-2-ethylpyridin-3-yl)oxy)ethan-1-one] showed an IC50 under setting [2] of 6 nM.

`CCc1nc(C)c(C2c3c(nc4sc(C)nn34)CCN2C(=O)COc2ccc(NS(C)(=O)=O)nc2Cl)s1` (stereo not shown) [Example 1.72.1, N-(6-chloro-5-(2-(5-(2-ethyl-4-methylthiazol-5-yl)-2-methyl-7,8-dihydro-[1,3,4]thiadiazolo[2′,3′:2,3]imidazo-[4,5-c]pyridin-6(5H)-yl)-2-oxoethoxy)pyridin-2-yl)methanesulfonamide] had an IC50 under setting [2] of 22 nM.

Turning to `Cc1nn2c3c(nc2s1)CCN(C(=O)C1(Oc2ccc(NS(C)(=O)=O)nc2Cl)CC1)C3c1ccc(Cl)cc1F` (stereo not shown) [Example 1.4.54, N-(6-chloro-5-(1-(5-(4-chloro-2-fluorophenyl)-2-methyl-5,6,7,8-tetrahydro-[1,3,4]thiadiazolo[2′,3′:2,3]imidazo[4,5-c]pyridine-6-carbonyl)cyclopropoxy)pyridin-2-yl)methanesulfonamide], the IC50 under setting [2] amounted to 37 nM.

As for `CCc1nc(NS(C)(=O)=O)ccc1OCC(=O)N1CCc2nc3sc(CF)nn3c2C1c1ccc(C)cc1F` (stereo not shown) [Example 7.3.2, N-(6-ethyl-5-(2-(5-(2-fluoro-4-methylphenyl)-2-(fluoromethyl)-7,8-dihydro-[1,3,4]thiadiazolo[2′,3′:2,3]imidazo[4,5-c]pyridin-6(5H)-yl)-2-oxoethoxy)pyridin-2-yl)methanesulfonamide], under setting [2], the IC50 is 12 nM.

For the compound `CCc1nc(N2CCCS2(=O)=O)ccc1OCC(=O)N1CCc2nc3sc(CF)nn3c2C1c1sc(C)nc1C` (stereo not shown) [Example 7.4.3, 1-(5-(2,4-dimethylthiazol-5-yl)-2-(fluoromethyl)-7,8-dihydro-[1,3,4]thiadiazolo[2′,3′:2,3]imidazo[4,5-c]pyridin-6(5H)-yl)-2-((6-(1,1-dioxidoisothiazolidin-2-yl)-2-ethylpyridin-3-yl)oxy)ethanone], it took 8 nM to reach half-maximal inhibition under setting [2] (IC50).

`Cc1nn2c3c(nc2s1)CCN(C(=O)COc1ccc(N2CC(F)(F)C2)cc1Cl)C3c1ccc(Cl)cc1F` (stereo not shown) [Example 1.4.29, 1-(5-(4-Chloro-2-fluorophenyl)-2-methyl-7,8-dihydro-[1,3,4]thiadiazolo[2′,3′:2,3]imidazo[4,5-c]pyridin-6(5H)-yl)-2-(2-chloro-4-(3,3-difluoroazetidin-1-yl)phe-noxy)ethanone]: the IC50 under setting [1] was 6 nM.

In turn, `Cc1nn2c3c(nc2s1)CCN(C(=O)COc1ccc(C(=O)N(C)C)nc1Cl)C3c1cnc(N(C)C)s1` (stereo not shown) [Example 1.22.9, 6-Chloro-5-(2-(5-(2-(dimethylamino)thiazol-5-yl)-2-methyl-7,8-dihydro-[1,3,4]thia-diazolo[2′,3′:2,3]imidazo[4,5-c]pyridin-6(5H)-yl)-2-oxoethoxy)-N,N-dimethylpicolinamide] gave a concentration for half-maximal inhibition (IC50) under setting [1] of 9 nM.

As for `Cc1nn2c3c(nc2s1)CCN(C(=O)COc1ccc(C#N)nc1Cl)C3c1ccc(C2CC2)cc1F` (stereo not shown) [Example 1.6.23, 6-chloro-5-(2-(5-(4-cyclopropyl-2-fluorophenyl)-2-methyl-7,8-dihydro-[1,3,4]thiadiazolo[2′,3′:2,3]imidazo[4,5-c]pyridin-6(5H)-yl)-2-oxoethoxy)picolinonitrile], the concentration for half-maximal inhibition (IC50) under setting [2] came to 8 nM.

Compound `Cc1nc(C)c(C2c3c(nc4sc(C)nn34)CCN2C(=O)COc2ccc(-c3ncco3)nc2Cl)s1` (stereo not shown) [Example 1.68.3, 2-((2-chloro-6-(oxazol-2-yl)pyridin-3-yl)oxy)-1-(5-(2,4-dimethylthiazol-5-yl)-2-methyl-7,8-dihydro-[1,3,4]thiadiazolo[2′,3′:2,3]imidazo[4,5-c]pyridin-6(5H)-yl)ethanone] came in with an IC50 under setting [2] of 9 nM.

The compound `Cc1nn2c3c(nc2s1)CCN(C(=O)COc1ccc(N2CCOCC2)nc1Cl)C3c1cncs1` (stereo not shown) [Example 1.39.3, 2-((2-chloro-6-morpholinopyridin-3-yl)oxy)-1-(2-methyl-5-(thiazol-5-yl)-7,8-dihydro-[1,3,4]thiadiazolo[2′,3′:2,3]imidazo[4,5-c]pyridin-6(5H)-yl)ethanone] displayed an IC50 under setting [2] of 5 nM.
